Reference: patent publication US6653300B2, “Pyrazole compounds useful as protein kinase inhibitors” (Vertex Pharmaceuticals Incorporated, priority 2000, dated 2003)
Several values for one entry are separate records, joined by “and”; a condition that tells them apart may be missing. Equal values may be shown once.

What was measured:
GSK-3β (AA 1-420) = target: T1, GSK-3β (AA 1-420) (Homo sapiens, UniProt P49841); experiment: Ki determination for the inhibition of GSK-3 (coupled enzyme system); type: biochemical; settings: 20 μM ATP, 20 nM GSK-3β, 30° C.
T1 construct: GSK-3β (AA 1-420)
T1 sequence (P49841 whole entry, the tested form may be a part): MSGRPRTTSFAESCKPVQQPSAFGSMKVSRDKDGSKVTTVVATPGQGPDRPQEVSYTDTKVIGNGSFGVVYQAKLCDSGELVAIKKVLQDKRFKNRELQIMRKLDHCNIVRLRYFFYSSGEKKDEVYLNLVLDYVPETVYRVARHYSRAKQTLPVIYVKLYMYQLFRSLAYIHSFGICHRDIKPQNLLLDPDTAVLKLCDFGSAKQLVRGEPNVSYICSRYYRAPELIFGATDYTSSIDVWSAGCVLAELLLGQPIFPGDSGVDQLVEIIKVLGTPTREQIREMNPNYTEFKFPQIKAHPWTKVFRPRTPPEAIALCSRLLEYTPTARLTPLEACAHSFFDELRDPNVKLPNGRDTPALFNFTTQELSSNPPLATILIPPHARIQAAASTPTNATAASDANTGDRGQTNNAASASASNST
Summary of the method: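 GSK-3β (AA 1-420, 20 nM) was run in a pyruvate kinase/LDH-coupled NADH assay in 100 mM HEPES pH 7.5, 10 mM MgCl2, 25 mM NaCl, 1 mM DTT, 1.5% DMSO, with 300 μM phosphopeptide substrate. Compound (0.002–30 μM) was preincubated 10 min at 30° C, then 20 μM ATP was added.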

Aurora-2 = target: T2, Aurora-2 (Homo sapiens, UniProt O14965); experiment: Ki determination for the inhibition of Aurora-2 (coupled enzyme assay); type: biochemical; settings: 70 nM Aurora-2, 30° C.
T2 sequence (O14965 1-403): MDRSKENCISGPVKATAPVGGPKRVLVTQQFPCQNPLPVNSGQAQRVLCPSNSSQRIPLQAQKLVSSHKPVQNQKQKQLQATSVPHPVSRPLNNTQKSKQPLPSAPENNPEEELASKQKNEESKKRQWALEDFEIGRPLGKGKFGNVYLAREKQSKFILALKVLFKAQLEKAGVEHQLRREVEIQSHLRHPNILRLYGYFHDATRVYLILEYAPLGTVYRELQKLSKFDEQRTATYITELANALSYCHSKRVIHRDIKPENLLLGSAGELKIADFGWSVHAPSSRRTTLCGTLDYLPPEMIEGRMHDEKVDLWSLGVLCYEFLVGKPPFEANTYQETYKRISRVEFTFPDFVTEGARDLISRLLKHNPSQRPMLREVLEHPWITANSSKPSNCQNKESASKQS
Procedure: Compounds were screened in the following manner for their ability to inhibit Aurora-2 using a standard coupled enzyme assay (Fox et al (1998) Protein Sci 7, 2249).
To an assay stock buffer solution containing 0.1M HEPES 7.5, 10 mM MgCl2, 1 mM DTT, 25 mM NaCl, 2.5 mM phosphoenolpyruvate, […], 30 mg/ml pyruvate kinase, 10 mg/ml lactate dehydrogenase, […], and 800 μM peptide (LRRASLG, American Peptide, Sunnyvale, Calif.) was added a DMSO solution of a compound of the present invention to a final concentration of 30 μM. The resulting mixture was incubated at 30° C. for 10 min. The reaction was initiated by the addition of 10 μL of Aurora-2 stock solution to give a final concentration of 70 nM in the assay. The rates of reaction were obtained by monitoring absorbance at 340 nm over a 5 minute read time at 30° C. using a BioRad Ultramark plate reader (Hercules, Calif.). The Ki values were determined from the rate data as a function of inhibitor concentration.

Row | SMILES | Ki (GSK-3β (AA 1-420)) | melting point | Ki (Aurora-2)
1 | Cc1cc(Nc2nc(Sc3ccc(NC(=O)CN(C)C(=O)OC(C)(C)C)cc3)nc3ccccc23)n[nH]1 [IIa-76, (2-{4-[2-(tert-Butoxycarbonyl-methyl-amino)-acetylamino]-phenylsulfanyl}-quinazolin-4-yl)-(5-methyl-2H-pyrazol-3-yl)-amine] | 1000 to 7000 nM | 228 to 229 °C (dec.) | < 100 nM
2 | COc1ccc(Oc2nc(Nc3cc(C)[nH]n3)c3ccccc3n2)cc1OC [IIb-7, [2-(3,4-Dimethoxyphenoxy)-quinazolin-4-yl]-(5-methyl-2N-pyrazol-3-yl)-amine] | 100 to 1000 nM | 277 to 278 °C | < 100 nM
3 | Cc1cc(Nc2nc(Oc3ccc4c(c3)OCO4)nc3ccccc23)n[nH]1 [IIb-8, [2-(Benzo[1,3]dioxol-5-yloxy)-quinazolin-4-yl]-(5-methyl-2H-pyrazol-3-yl)-amine] | < 100 nM | 296 to 299 °C (dec.) | < 100 nM
4 | Cc1cc(Nc2nc(NCc3ccccc3)nc3ccccc23)n[nH]1 [IIc-5, (2-Benzylamino-quinazolin-4-yl)-(5-methyl-2H-pyrazol-3-yl)-amine] | 100 to 1000 nM | 225 to 227 °C | < 100 nM
5 | Cc1cc(Nc2nc(NC3CCCCC3)nc3ccccc23)n[nH]1 [IIc-6, (2-Cyclohexylamino-quinazolin-4-yl)-(5-methyl-2H-pyrazol-3-yl)-amine] | < 100 nM and 100 to 1000 nM | 280 °C (dec.) | < 100 nM
6 | Cc1cc(Nc2nc(Nc3ccc4c(c3)OCCO4)nc3ccccc23)n[nH]1 [IIc-7, [2-(2,3-Dihydrobenzo[1,4]dioxin-6-ylamino)-quinazolin-4-yl]-(5-methyl-2H-pyrazol-3-yl)-amine] | 100 to 1000 nM | > 250 °C | < 100 nM
7 | Cc1cc(Nc2nc(Nc3ccc(Cl)cc3)nc3ccccc23)n[nH]1 [IIc-12, [2-(4-Chlorophenylamino)-quinazolin-4-yl]-(5-methyl-2H-pyrazol-3-yl)-amine] | < 100 nM | > 250 °C | < 100 nM
8 | Cc1cc(Nc2nc(Nc3ccccc3CCO)nc3ccccc23)n[nH]1 [IIc-14, {2-[2-(2-Hydroxyethyl)phenylamino]-quinazolin-4-yl}-(5-methyl-2H-pyrazol-3-yl)-amine] | 100 to 1000 nM | 222 °C | 100 to 1000 nM
9 | Cc1cc(Nc2nc(Nc3cccc(CO)c3)nc3ccccc23)n[nH]1 [IIc-16, [2-(3-Hydroxymethylphenylamino)-quinazolin-4-yl]-(5-methyl-2H-pyrazol-3-yl)-amine] | 100 to 1000 nM | > 250 °C | < 100 nM
10 | Cc1cc(Nc2nc(Nc3cccc(O)c3)nc3ccccc23)n[nH]1 [IIc-17, [2-(3-Hydroxyphenylamino)-quinazolin-4-yl]-(5-methyl-2H-pyrazol-3-yl)-amine] | 100 to 1000 nM | > 250 °C | < 100 nM
11 | COc1ccc(Nc2nc(Nc3cc(C4CC4)[nH]n3)c3ccccc3n2)cn1 [IIc-20, (5-Cyclopropyl-2H-pyrazol-3-yl)-[2-(6-methoxypyridin-3-ylamino)-quinazolin-4-yl]-amine] | < 100 nM | 120 °C | < 100 nM
12 | CCCc1ccc(Nc2nc(Nc3cc(C4CC4)n[nH]3)c3ccccc3n2)cc1 [IIc-26, (5-Cyclopropyl-2H-pyrazol-3-yl)-[2-(4-propylphenylamino)-quinazolin-4-yl]-amine] | 100 to 1000 nM | 255 to 256 °C | < 100 nM
13 | c1ccc2c(Nc3cc(C4CC4)[nH]n3)nc(NCCC3CCCCC3)nc2c1 [IIc-29, [2-(2-Cyclohexylethylamino)-quinazolin-4-yl]-(5-cyclopropyl-2H-pyrazol-3-yl)-amine] | 100 to 1000 nM | > 250 °C | < 100 nM
14 | O=C(O)COc1ccc(Nc2nc(Nc3cc(C4CC4)[nH]n3)c3ccccc3n2)cc1 [IIc-30, [2-(4-Carboxymethoxyphenylamino)-quinazolin-4-yl]-(5-cyclopropyl-2H-pyrazol-3-yl)-amine] | < 100 nM | > 250 °C | < 100 nM
15 | O=C(O)Cc1ccc(Nc2nc(Nc3cc(C4CC4)[nH]n3)c3ccccc3n2)cc1 [IIc-36, [2-(4-Carboxymethylphenylamino)-quinazolin-4-yl]-(5-cyclopropyl-2H-pyrazol-3-yl)-amine] | < 100 nM | > 210 °C (dec.) | < 100 nM
16 | O=C(O)c1cccc(Nc2nc(Nc3cc(C4CC4)[nH]n3)c3ccccc3n2)c1 [IIc-40, [2-(3-Carboxyphenylamino)-quinazolin-4-yl]-(5-cyclopropyl-2H-pyrazol-3-yl)-amine] | 100 to 1000 nM | 298 to 302 °C | < 100 nM
17 | c1ccc(CCCNc2nc(Nc3cc(C4CC4)[nH]n3)c3ccccc3n2)cc1 [IIc-47, (5-Cyclopropyl-2H-pyrazol-3-yl)-[2-(3-phenylprop-1-ylamino)-quinazolin-4-yl]-amine] | 100 to 1000 nM | 189 °C | < 100 nM
18 | CC(=O)Nc1ccc(Nc2nc(Nc3cc(C)[nH]n3)c3ccccc3n2)cc1C [IIc-48, [2-(4-acetamido-3-methylphenylamino)-quinazolin-4-yl]-(5-methyl-2H-pyrazol-3-yl)-amine] | 100 to 1000 nM | 251 °C | < 100 nM
19 | c1ccc2c(c1)CC(Nc1nc(Nc3cc(C4CC4)[nH]n3)c3ccccc3n1)C2 [IIc-49, (5-Cyclopropyl-2H-pyrazol-3-yl)-[2-(indan-2-ylamino)-quinazolin-4-yl]-amine] | 100 to 1000 nM | 233 to 234 °C | < 100 nM
20 | Cc1cccc(Nc2nc(Nc3cc(C)[nH]n3)c3ccccc3n2)c1 [IIc-50, [2-(3-Methylphenylamino)-quinazolin-4-yl]-(5-methyl-2H-pyrazol-3-yl)-amine] | 100 to 1000 nM | 240 to 242 °C | < 100 nM
21 | c1ccc2c(Nc3cc(C4CC4)[nH]n3)nc(Nc3ccc(N4CCOCC4)cc3)nc2c1 [IIc-52, (5-Cyclopropyl-2H-pyrazol-3-yl)-{2-[4-(morpholin-1-yl)phenylamino]-quinazolin-4-yl}-amine] | 100 to 1000 nM | 275 to 276 °C | < 100 nM
22 | Cc1cc(Nc2nc(Nc3ccc(C)c(C)c3)nc3ccccc23)n[nH]1 [IIc-54, [2-(3,4-Dimethylphenylamino)-quinazolin-4-yl]-(5-methyl-2H-pyrazol-3-yl)-amine] | 100 to 1000 nM | 249 to 251 °C | < 100 nM
23 | CCc1cccc(Nc2nc(Nc3cc(C)[nH]n3)c3ccccc3n2)c1 [IIc-55, [2-(3-Ethylphenylamino)-quinazolin-4-yl]-(5-methyl-2H-pyrazol-3-yl)-amine] | 100 to 1000 nM | 238 to 239 °C | < 100 nM
24 | CC(=O)Nc1ccc(Nc2nc(Nc3cc(C)[nH]n3)c3ccccc3n2)cc1C#N [IIc-57, [2-(4-Acetamido-3-cyanophenylamino)-quinazolin-4-yl]-(5-methyl-2H-pyrazol-3-yl)-amine] | 100 to 1000 nM | 294 to 296 °C | < 100 nM
25 | CC(=O)Nc1ccc(Nc2nc(Nc3cc(C)[nH]n3)c3ccccc3n2)cc1 [IIc-59, [2-(4-Acetamidophenylamino)-quinazolin-4-yl]-(5-methyl-2H-pyrazol-3-yl)-amine] | 100 to 1000 nM | 253 to 256 °C | < 100 nM
26 | Cc1cc(Nc2nc(Nc3ccc(NC(=O)OC(C)(C)C)cc3)nc3ccccc23)n[nH]1 [IIc-60, [2-(4-tert-Butoxycarbonylamino-phenylamino)-quinazolin-4-yl]-(5-methyl-2H-pyrazol-3-yl)-amine] | 1000 to 7000 nM | 238 to 242 °C | < 100 nM
27 | Cc1cc(Nc2nc(Nc3ccc(C#N)cc3)nc3ccccc23)n[nH]1 [IIc-61, [2-(4-Cyanophenylamino)-quinazolin-4-yl]-(5-methyl-2H-pyrazol-3-yl)-amine] | < 100 nM | 293 to 298 °C | < 100 nM
28 | Cc1cc(Nc2nc(Nc3cccc(-c4ccccc4)c3)nc3ccccc23)n[nH]1 [IIc-63, [2-(Biphenyl-3-ylamino)-quinazolin-4-yl]-(5-methyl-2H-pyrazol-3-yl)-amine] | 100 to 1000 nM | 206 to 207 °C | < 100 nM
